Laboratory results as given in US6713475B2, “Tricyclic benzodiazepines as vasopressin receptor antagonists” (Ortho-McNeil Pharmaceutical, Inc., priority 1999, dated 2004).

Assays:
human V-1 receptor = target: T1, human V-1 receptor (Homo sapiens, UniProt P37288); assay: In vitro recombinant vasopressin receptor binding assay (V1 Bdg), displacement of 3H-arginine vasopressin; details: for inhibition at 0.1 µM: read-out: V1 Bdg (% inh, 0.1 uM)
T1 construct: expressed in transfected cells; host or cells: HEK-293
T1 sequence (P37288 whole entry): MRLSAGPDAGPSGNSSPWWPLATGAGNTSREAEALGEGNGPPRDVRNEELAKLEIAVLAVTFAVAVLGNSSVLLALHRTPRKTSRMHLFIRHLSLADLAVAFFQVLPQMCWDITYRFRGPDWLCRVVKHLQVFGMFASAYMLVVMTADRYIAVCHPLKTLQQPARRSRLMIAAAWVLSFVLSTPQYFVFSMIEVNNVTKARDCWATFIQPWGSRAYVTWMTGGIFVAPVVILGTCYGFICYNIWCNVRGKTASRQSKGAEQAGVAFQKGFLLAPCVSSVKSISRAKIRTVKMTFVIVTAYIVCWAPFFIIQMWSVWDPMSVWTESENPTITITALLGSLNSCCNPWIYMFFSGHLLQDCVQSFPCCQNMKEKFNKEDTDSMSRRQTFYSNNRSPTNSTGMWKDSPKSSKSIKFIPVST
Procedure: In vitro Recombinant Vasopressin Receptor Binding Assay
Compounds were assessed for their ability to displace ^3H-arginine vasopressin from the human V-1 or V-2 receptor in HEK-293 cells. Assay buffer is 50 mM Tris-Cl, 5 mM MgCl2, 0.1% BSA (pH 7.5) containing 5 ug/ml of aprotinin, leupeptin, pepstatin, 50 ug/ml bacitracin, and 1 mM Pefabloc. ^3H-vasopressin is ^3H-arginine-8-vasopressin (68.5 Ci/mmol, final concentration in assay is 0.65-0.75 nM). Into wells of 96-well round bottom polypropylene plates were added buffer, test compound, membrane (containing cloned human V-1 or V-2 receptor), and ^3H-vasopressin. The reaction plates were allowed to sit at room temperature for one hour. The samples were filtered through Unifilter GF/C plates (presoaked in 0.3 polyethyleneimine). The plates were washed 5 times with cold physiological saline containing 0.05% Tween 20. After drying, the bottom of the filter plates were sealed and 0.025 ml of Microscint-20 was added to each filter. The top of the plate was sealed, and the plate was counted. Non-specific binding was determined by the addition of 1.25 uM arginine-8-vasopressin in those wells.

V2 = V2 (Homo sapiens, UniProt P30518); assay: In vitro recombinant vasopressin receptor binding assay (V2 Bdg), displacement of 3H-arginine vasopressin; design: expressed in transfected cells; host or cells: HEK-293; details: for IC50: membrane with cloned human V-2 receptor (HEK-293); for V2 Bdg % inh: 0.1 uM, printed in parentheses in place of IC50
Summary of the method: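 Displacement of ³H-vasopressin from membranes of HEK-293 cells bearing cloned human V-2 receptor, incubated with test compound one hour at room temperature. Bound label was collected on PEI-soaked GF/C filters, washed with cold saline/0.05% Tween 20, and counted by scintillation.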

inhibition at 0.1 µM (human V-1 receptor) | IC50 (V2) | Molecule | V1 Bdg % inh (human V-1 receptor; 1 uM) | V2 Bdg % inh (V2) | other results
33% | 10 nM | O=C(Nc1ccc(C(=O)N2CC3COCCN3Cc3ccccc32)c(O)c1)c1ccccc1-c1ccccc1 (racemic) [Compound 23, (RS)-2-Phenyl-N-[3-hydroxy-4-(1,3,4,12a-tetrahydro-6H-[1,4]oxazino[4,3-a][1,4]-benzodiazepin-11(12H)-yl-carbonyl)phenyl]benzamide] |  |  | 
 |  | (RS)-2-Methyl-3-chloro-N-[3-chloro-4-(1,3,4,12a-tetrahydro-2-methyl-6H-[1,4]pyrazino[4,3-a][1,4]-benzodiazepin-11(12H)-yl-carbonyl)phenyl]benzamide [Compound 95] | (10%/1 uM) | (38%/0.1 uM) | 
 |  | O=C(Nc1ccc(C(=O)N2CC3CN(CC(F)(F)F)CCN3Cc3ccccc32)c(Cl)c1)c1ccccc1-c1ccccc1 (racemic) [Compound 91, (RS)-2-Phenyl-N-[3-chloro-4-(1,3,4,12a-tetrahydro-2-(2,2,2-trifluoroethyl)-6H-[1,4]pyrazino[4,3-a][1,4]-benzodiazepin-11(12H)-yl-carbonyl)phenyl]benzamide] | (2%/1 uM) | (31%/0.1 uM) | 
 |  | CN1CCN2Cc3ccccc3N(C(=O)c3ccc(NC(=O)c4cc(F)c(F)c(F)c4F)cc3Cl)CC2C1 (racemic) [Compound 93, (RS)-2,3,4,5-Tetrafluoro-N-[3-chloro-4-(1,3,4,12a-tetrahydro-2-methyl-6H-(1,4]pyrazino[4,3-a][1,4]-benzodiazepin-11(12H)-yl-carbonyl)phenyl]benzamide] | (49%/1 uM) | (24%/0.1 uM) | 
 |  | (RS)-2-Chloro-5-trifluoromethyl-N-[3-chloro-4-(1,3,4,12a-tetrahydro-6H-[1,4]oxazino[4,3-a][1,4]-benzodiazepin-11(12H)-yl-carbonyl)phenyl]benzamide [Compound 17] |  | (63%/0.1 uM) | V1 Bdg (% inh, 0.1 uM) (human V-1 receptor): 13%
 |  | (RS)-3,5-Dichloro-N-[3-chloro-4-(1,3,4,12a-tetrahydro-6H-[1,4]thiazino[4,3-a][1,4]-benzodiazepin-11(12H)-yl-carbonyl)phenyl]benzamide [Compound 43] |  | (47%/0.1 uM) | V1 Bdg (% inh, 0.1 uM) (human V-1 receptor): 11%
14% | 10 nM | Cc1ccc(-c2ccccc2C(=O)Nc2ccc(C(=O)N3CC4COCCN4Cc4ccccc43)c(C)c2)cc1 (racemic) [Compound 28, (RS)-2-(4-Methyl-phenyl)-N-[3-methyl-4-(1,3,4,12a-tetrahydro-6H-[1,4]oxazino[4,3-a][1,4]-benzodiazepin-11(12H)-yl-carbonyl)phenyl]benzamide] |  |  | 
 |  | Cc1cccc(C(=O)Nc2ccc(C(=O)N3CC4CSCCN4Cc4ccccc43)c(Cl)c2)c1I (racemic) [Compound 42, (RS)-2-Iodo-3-methyl-N-[3-chloro-4-(1,3,4,12a-tetrahydro-6H-[1,4]thiazino[4,3-a][1,4]-benzodiazepin-11(12H)-yl-carbonyl)phenyl]benzamide] |  | (62%/0.1 uM) | V1 Bdg (% inh, 0.1 uM) (human V-1 receptor): 0%
 |  | CN1CCN2Cc3ccccc3N(C(=O)c3ccc(NC(=O)c4ccccc4-c4ccccc4)cc3)CC2C1 (racemic) [Compound 69, (RS)-2-Phenyl-N-[4-(1,3,4,12a-tetrahydro-2-methyl-6H-[1,4]pyrazino[4,3-a][1,4]-benzodiazepin-11(12H)-yl-carbonyl)phenyl]benzamide] | (22%/1 uM) | (38%/0.1 uM) | 
 |  | Cc1ccc(F)c(C(=O)Nc2ccc(C(=O)N3CC4CN(C)CCN4Cc4ccccc43)c(Cl)c2)c1 (racemic) [Compound 96, (RS)-2-Fluoro-5-methyl-N-[3-chloro-4-(1,3,4,12a-tetrahydro-2-methyl-6H-[1,4]pyrazino[4,3-a][1,4]-benzodiazepin-11(12H)-yl-carbonyl)phenyl]benzamide] | (9%/1 uM) | (3%/0.1 uM) | 
20% | 25 nM | O=C(Nc1ccc(C(=O)N2CC3COCCN3Cc3ccccc32)c(Cl)c1)c1cc(F)c(F)c(F)c1F (racemic) [Compound 16, (RS)-2,3,4,5-Tetrafluoro-N-[3-chloro-4-(1,3,4,12a-tetrahydro-6H-[1,4]oxazino[4,3-a][1,4]-benzodiazepin-11(12H)-yl-carbonyl)phenyl]benzamide] |  |  | 
 |  | Cc1ccccc1C(=O)Nc1c(C)cc(C(=O)N2CC3CN(C)CCN3Cc3ccccc32)cc1C (racemic) [Compound 80, (RS)-2-Methyl-N-[2,6-dimethyl-4-(1,3,4,12a-tetrahydro-2-methyl-6H-[1,4]pyrazino[4,3-a][1,4]-benzodiazepin-11(12H)-yl-carbonyl)phenyl]benzamide] | (19%/1 uM) | (6%/0.1 uM) | 
76% | 18 nM | Cc1ccc2c(c1)CN1CCSCC1CN2C(=O)c1ccc(NC(=O)c2ccccc2-c2ccccc2)cc1 (racemic) [Compound 36, (RS)-2-Phenyl-N-[4-(8-methyl-1,3,4,12a-tetrahydro-6H-[1,4]thiazino[4,3-a][1,4]-benzodiazepin-11(12H)-yl-carbonyl)phenyl]benzamide] |  |  | 
 |  | CN1CCN2Cc3ccccc3N(C(=O)c3ccc(NC(=O)c4c(F)cccc4F)cc3Cl)CC2C1 (racemic) [Compound 99, (RS)-2,6-Difluoro-N-[3-chloro-4-(1,3,4,12a-tetrahydro-2-methyl-6H-[1,4]pyrazino[4,3-a][1,4]-benzodiazepin-11(12H)-yl-carbonyl)phenyl]benzamide] | (12%/1 uM) | (10%/0.1 uM) | 
32% | 27 nM | O=C(Nc1ccc(C(=O)N2C[C@H]3COCCN3Cc3ccccc32)c(Cl)c1)c1cc(O)ccc1-c1ccccc1 [Compound 8, (S)-2-Phenyl-5-hydroxy-N-[3-chloro-4-(1,3,4,12a-tetrahydro-6H-[1,4]oxazino[4,3-a][1,4]-benzodiazepin-11(12H)-yl-carbonyl)phenyl]benzamide] |  |  | 
 |  | COc1cc(NC(=O)c2ccccc2-c2ccccc2)ccc1C(=O)N1CC2CN(C)CCN2Cc2ccccc21 (racemic) [Compound 84, (RS)-2-Phenyl-N-[3-methoxy-4-(1,3,4,12a-tetrahydro-2-methyl-6H-[1,4]pyrazino[4,3-a][1,4]-benzodiazepin-11(12H)-yl-carbonyl)phenyl]benzamide] | (10%/1 uM) | (36%/0.1 uM) | 
60% | 12 nM | Cc1ccc(-c2ccccc2C(=O)Nc2ccc(C(=O)N3CC4COCCN4Cc4ccccc43)c(Cl)c2)cc1 (racemic) [Compound 25, (RS)-2-(4-Methyl-phenyl)-N-[3-chloro-4-(1,3,4,12a-tetrahydro-6H-[1,4]oxazino[4,3-a][1,4]-benzodiazepin-11(12H)-yl-carbonyl)phenyl]benzamide] |  |  | 
 |  | CN1CCN2Cc3ccccc3N(C(=O)c3ccc(NC(=O)c4cccc(Cl)c4Cl)cc3Cl)CC2C1 (racemic) [Compound 97, (RS)-2,3-Dichloro-N-[3-chloro-4-(1,3,4,12a-tetrahydro-2-methyl-6H-[1,4]pyrazino[4,3-a][1,4]-benzodiazepin-11(12H)-yl-carbonyl)phenyl]benzamide] | (21%/1 uM) | (9%/0.1 uM) | 
3% | 6 nM | Cc1cc(NC(=O)c2ccccc2-c2ccccc2)ccc1C(=O)N1CC2COCCN2Cc2ccccc21 (racemic) [Compound 29, (RS)-2-Phenyl-N-[3-methyl-4-(1,3,4,12a-tetrahydro-6H-[1,4]oxazino[4,3-a][1,4]-benzodiazepin-11(12H)-yl-carbonyl)phenyl]benzamide] |  |  | 
67% | 6 nM | O=C(Nc1ccc(C(=O)N2CC3COCCN3Cc3ccccc32)cc1O)c1ccccc1-c1ccccc1 (racemic) [Compound 22, (RS)-2-Phenyl-N-[2-hydroxy-4-(1,3,4,12a-tetrahydro-6H-[1,4]oxazino[4,3-a][1,4]-benzodiazepin-11(12H)-yl-carbonyl)phenyl]benzamide] |  |  | 
7% | 13 nM | Cc1ccccc1C(=O)Nc1ccc(C(=O)N2CC3COCCN3Cc3ccccc32)c(C)c1 (racemic) [Compound 27, (RS)-2-M ethyl-N-[3-methyl-4-(1,3,4,12a-tetrahydro-6H-[1,4]oxazino[4,3-a][1,4]-benzodiazepin-11(12H)-yl-carbonyl)phenyl]benzamide] |  |  | 
 |  | (RS)-2-Phenyl-N-[4-(8,9-dimethoxy-1,3,4,12a-tetrahydro-6H-[1,4]thiazino[4,3-a][1,4]-benzodiazepin-11(12H)-yl-carbonyl)phenyl]benzamide [Compound 33] |  | (19%/0.1 uM) | V1 Bdg % inh (human V-1 receptor; 10 uM): 6%/10 uM
 |  | O=CN1CCN2Cc3ccccc3N(C(=O)c3ccc(NC(=O)c4ccccc4-c4ccccc4)cc3)CC2C1 (racemic) [Compound 59, (RS)-2-Phenyl-N-[4-(1,3,4,12a-tetrahydro-2-formyl-6H-[1,4]pyrazino[4,3-a][1,4]-benzodiazepin-11(12H)-yl-carbonyl)phenyl]benzamide] |  | (29%/0.1 uM) | V1 Bdg % inh (human V-1 receptor; 10 uM): (17%/10 uM)
